Here are results for eight compounds from PubChem BioAssay AID226 (DTP/NCI, 2004).

Where “and” joins values, the source holds several entries; their conditions need not be identical. Equal values may be shown once. Inconclusive results and toxic doses are left out.

For this experiment, the system named is B6C3F1 mice, intracerebral ependymoblastoma, median survival T/C. Description: NCI In Vivo Anticancer Drug Screen. Data for tumor model Ependymoblastoma (intracerebral) in B6C3F1 mice. The note with it: endpoint: median survival time, higher = longer survival. The method, then:
The antitumor activity of compounds was measured in mice bearing transplantable tumors. Survival or tumor size were measured and the results are expressed as the measurement made in the treated group (T) divided by the measurement made in the vehicle treated control group (C). The tumor model used in this assay is Ependymoblastoma (intracerebral) in B6C3F1 mice

Where [1] appears, read: dose: 25.0 mg/kg/injection, schedule: Q01DX005 (ip), vehicle: Klucel (hydroxypropylcellulose) (HPC).
The mark [2] stands for this setting: dose: 2.0 mg/kg/injection, schedule: Q01DX005 (ip), vehicle: saline.
Where [3] appears, read: dose: 4.0 mg/kg/injection, schedule: Q01DX005 (ip), vehicle: saline.
[4] abbreviates: dose: 64.0 mg/kg/injection, schedule: Q01DX005 (ip), vehicle: saline with Tween-80.

In the case of `CN(Cc1cnc2nc(N)nc(N)c2n1)c1ccc(C(=O)N[C@@H](CCC(=O)O)C(=O)O)cc1`, the T/C runs as follows: (dose: 4.0 mg/kg/injection, schedule: Q01DX009 (ip), vehicle: saline with Tween-80) 118 % of control; (dose: 4.0 mg/kg/injection, schedule: Q04DX003 (ip), vehicle: saline with Tween-80) 118 % of control; (dose: 8.0 mg/kg/injection, schedule: Q01DX009 (ip), vehicle: saline with Tween-80) 106 % of control; (dose: 8.0 mg/kg/injection, schedule: Q04DX003 (ip), vehicle: saline with Tween-80) 110 % of control; (dose: 16.0 mg/kg/injection, schedule: Q01DX009 (ip), vehicle: saline with Tween-80) 111 % of control; (dose: 16.0 mg/kg/injection, schedule: Q04DX003 (ip), vehicle: saline with Tween-80) 98 % of control. In addition, under “dose: 32.0 mg/kg/injection, schedule: Q01DX009 (ip), vehicle: saline with Tween-80”, the T/C was 109 % of control.
Take `COc1nc(C(Cl)(Cl)Cl)c(Cl)c(OC)c1Cl`: the T/C under setting [1] is 94 % of control; the T/C (dose: 50.0 mg/kg/injection, schedule: Q01DX005 (ip), vehicle: Klucel (hydroxypropylcellulose) (HPC)) is 107 % of control; the T/C (dose: 100.0 mg/kg/injection, schedule: Q01DX005 (ip), vehicle: Klucel (hydroxypropylcellulose) (HPC)) was 114 % of control.
As for `COc1cc(NS(C)(=O)=O)ccc1Nc1c2ccccc2nc2ccccc12`, the T/C is 110 % of control (dose: 1.0 mg/kg/injection, schedule: Q01DX005 (ip), vehicle: Klucel (hydroxypropylcellulose) (HPC)); 103 % of control and 104 % of control (dose: 1.0 mg/kg/injection, schedule: Q01DX005 (ip), vehicle: saline); 94 % of control and 96 % of control (2×) (dose: 1.0 mg/kg/injection, schedule: Q01DX005 (ip), vehicle: water); 99 % of control (dose: 2.0 mg/kg/injection, schedule: Q01DX005 (ip), vehicle: Klucel (hydroxypropylcellulose) (HPC)); 107 % of control and 112 % of control under setting [2]; 94 % of control and 100 % of control and 101 % of control (dose: 2.0 mg/kg/injection, schedule: Q01DX005 (ip), vehicle: water). For the same compound, the T/C runs as follows: (dose: 4.0 mg/kg/injection, schedule: Q01DX005 (ip), vehicle: Klucel (hydroxypropylcellulose) (HPC)) 103 % of control; under setting [3], 103 % of control; (dose: 4.0 mg/kg/injection, schedule: Q01DX005 (ip), vehicle: water) 96 % of control and 100 % of control and 108 % of control; (dose: 8.0 mg/kg/injection, schedule: Q01DX005 (ip), vehicle: saline) 106 % of control and 112 % of control; (dose: 8.0 mg/kg/injection, schedule: Q01DX005 (ip), vehicle: water) 100 % of control and 107 % of control and 112 % of control.
`CC1CCC(NC(=O)N(CCCl)N=O)CC1` (centres undefined): the T/C reads like this: (dose: 0.5 mg/kg/injection, schedule: Q01DX009 (ip), vehicle: Klucel (hydroxypropylcellulose) (HPC)) 108 % of control; (dose: 1.0 mg/kg/injection, schedule: Q01DX005 (ip), vehicle: other) 110 % of control; (dose: 1.0 mg/kg/injection, schedule: Q01DX009 (ip), vehicle: Klucel (hydroxypropylcellulose) (HPC)) 106 % of control; (dose: 2.0 mg/kg/injection, schedule: Q01DX005 (ip), vehicle: other) 160 % of control; under setting [2], 102 % of control; (dose: 2.0 mg/kg/injection, schedule: Q01DX009 (ip), vehicle: Klucel (hydroxypropylcellulose) (HPC)) 112 % of control. Also, the T/C (dose: 4.0 mg/kg/injection, schedule: Q01DX005 (ip), vehicle: other) is 119 % of control; the T/C under setting [3] is 108 % of control; the T/C (dose: 6.25 mg/kg/injection, schedule: Q01DX001 (ip), vehicle: saline + alcohol) is 118 % of control; the T/C (dose: 8.0 mg/kg/injection, schedule: Q01DX005 (ip), vehicle: other) was 160 % of control; the T/C (dose: 8.3 mg/kg/injection, schedule: Q01DX001 (ip), vehicle: DMSO) is 104 % of control; the T/C (dose: 13.8 mg/kg/injection, schedule: Q01DX001 (ip), vehicle: DMSO) is 108 % of control. The T/C was 124 % of control (dose: 16.0 mg/kg/injection, schedule: Q01DX001 (ip), vehicle: other); 300 % of control (dose: 16.0 mg/kg/injection, schedule: Q01DX005 (ip), vehicle: other); 122 % of control (dose: 23.0 mg/kg/injection, schedule: Q01DX001 (ip), vehicle: DMSO); 182 % of control (dose: 25.0 mg/kg/injection, schedule: Q01DX001 (ip), vehicle: saline + alcohol); 112 % of control (dose: 38.4 mg/kg/injection, schedule: Q01DX001 (ip), vehicle: DMSO); 235 % of control (dose: 50.0 mg/kg/injection, schedule: Q01DX001 (ip), vehicle: saline + alcohol). Besides, the T/C reads like this: (dose: 64.0 mg/kg/injection, schedule: Q01DX001 (ip), vehicle: DMSO) 118 % of control; (dose: 64.0 mg/kg/injection, schedule: Q01DX001 (ip), vehicle: other) 191 % of control; (dose: 128.0 mg/kg/injection, schedule: Q01DX001 (ip), vehicle: other) 204 % of control.
Consider `CCCCCN(C)/N=N/c1nc[nH]c1C(N)=O`, for which the T/C under setting [4] is 153 % of control and the T/C (dose: 128.0 mg/kg/injection, schedule: Q01DX005 (ip), vehicle: saline with Tween-80) was 160 % of control.
On to `CCC(=O)O[C@H]1CC[C@H]2[C@@H]3CCC4=CC(=O)CC[C@]4(C)[C@H]3CC[C@]12C`, for which the T/C runs as follows: (dose: 8.0 mg/kg/injection, schedule: Q01DX005 (ip), vehicle: Klucel (hydroxypropylcellulose) (HPC)) 97 % of control and 100 % of control; (dose: 16.0 mg/kg/injection, schedule: Q01DX005 (ip), vehicle: Klucel (hydroxypropylcellulose) (HPC)) 101 % of control and 87 % of control; (dose: 32.0 mg/kg/injection, schedule: Q01DX005 (ip), vehicle: Klucel (hydroxypropylcellulose) (HPC)) 101 % of control; (dose: 64.0 mg/kg/injection, schedule: Q01DX005 (ip), vehicle: Klucel (hydroxypropylcellulose) (HPC)) 106 % of control; (dose: 128.0 mg/kg/injection, schedule: Q01DX005 (ip), vehicle: Klucel (hydroxypropylcellulose) (HPC)) 102 % of control and 87 % of control; (dose: 256.0 mg/kg/injection, schedule: Q01DX005 (ip), vehicle: Klucel (hydroxypropylcellulose) (HPC)) 95 % of control. Also, the T/C (dose: 512.0 mg/kg/injection, schedule: Q01DX005 (ip), vehicle: Klucel (hydroxypropylcellulose) (HPC)) was 95 % of control and 86 % of control.
Consider `CN(CO)c1nc(N(C)CO)nc(N(C)CO)n1`, for which the T/C by setting is: (dose: 0.78 mg/kg/injection, schedule: Q01DX005 (ip), vehicle: saline with Tween-80) 98 % of control; (dose: 1.56 mg/kg/injection, schedule: Q01DX005 (ip), vehicle: saline with Tween-80) 100 % of control and 105 % of control; (dose: 3.12 mg/kg/injection, schedule: Q01DX005 (ip), vehicle: saline with Tween-80) 94 % of control and 105 % of control and 110 % of control; (dose: 3.12 mg/kg/injection, schedule: Q01DX009 (ip), vehicle: Klucel (hydroxypropylcellulose) (HPC)) 95 % of control and 120 % of control; (dose: 4.0 mg/kg/injection, schedule: Q01DX005 (ip), vehicle: saline with Tween-80) 98 % of control; (dose: 6.25 mg/kg/injection, schedule: Q01DX009 (ip), vehicle: Klucel (hydroxypropylcellulose) (HPC)) 96 % of control and 108 % of control and 111 % of control. Also, the T/C is 89 % of control (dose: 8.0 mg/kg/injection, schedule: Q01DX005 (ip), vehicle: saline with Tween-80); 93 % of control and 111 % of control (dose: 12.5 mg/kg/injection, schedule: Q01DX009 (ip), vehicle: Klucel (hydroxypropylcellulose) (HPC)); 97 % of control (dose: 16.0 mg/kg/injection, schedule: Q01DX005 (ip), vehicle: saline with Tween-80); 104 % of control and 114 % of control and 124 % of control (dose: 25.0 mg/kg/injection, schedule: Q01DX009 (ip), vehicle: Klucel (hydroxypropylcellulose) (HPC)); 94 % of control (dose: 32.0 mg/kg/injection, schedule: Q01DX005 (ip), vehicle: saline with Tween-80); 120 % of control (dose: 50.0 mg/kg/injection, schedule: Q01DX009 (ip), vehicle: Klucel (hydroxypropylcellulose) (HPC)). The T/C reads like this: under setting [4], 95 % of control; (dose: 100.0 mg/kg/injection, schedule: Q01DX005 (ip), vehicle: saline with Tween-80) 119 % of control.
As for `CCC(=O)OCC1OC(n2cnc3c(=S)nc(N)[nH]c32)C(OC(=O)CC)C1OC(=O)CC` (centres undefined), the T/C runs as follows: (dose: 3.12 mg/kg/injection, schedule: Q01DX005 (ip), vehicle: Klucel (hydroxypropylcellulose) (HPC)) 104 % of control; (dose: 6.25 mg/kg/injection, schedule: Q01DX005 (ip), vehicle: Klucel (hydroxypropylcellulose) (HPC)) 110 % of control; (dose: 12.5 mg/kg/injection, schedule: Q01DX005 (ip), vehicle: Klucel (hydroxypropylcellulose) (HPC)) 121 % of control; under setting [1], 120 % of control.
